Experimental data reported in PMC5522996, “Big conductance calcium‐activated potassium channel openers control spasticity without sedation” (British Journal of Pharmacology, 2017).

Experiments:
[1] = system: Na+-Ca2+ exchanger; assay: Receptor binding profile of VSN16R; design: species or system human; settings: 10µM VSN16R
[2] = molecular target: T1, hERG Kv11.1 K+ channel (Homo sapiens, UniProt Q12809); assay: Receptor binding profile of VSN16R; settings: tested to 100 µM
T1 construct: purchased Cerep; Chantest; DiscoveRx; Multispan; MDS Pharma Services

[3] = molecular target: T2, NK2 (Homo sapiens, UniProt P21452); assay: Receptor binding profile of VSN16R; settings: 10µM VSN16R
T2 construct: purchased Cerep; Chantest; DiscoveRx; Multispan; MDS Pharma Services

[4] = molecular target: CYP450 1A2 (Homo sapiens)
Description: IC50 Inhibition of substrate binding
Inhibition of binding of either 3-cyano-7-ethoxycoumarin, dibenzylfluorescein or 7-benzyoxy-4-
(trifluoromethyl) coumarin in human enzyme transfected BTI NN-5B1-4 cells or Sf9 insect cells or
inhibition of dextromethorphan substrate to CYP450 2D6 in liver microsomes.

[5] = molecular target: T3, H1 (Homo sapiens, UniProt P35367); assay: Receptor binding profile of VSN16R; settings: 10µM VSN16R
T3 construct: purchased Cerep; Chantest; DiscoveRx; Multispan; MDS Pharma Services

[6] = molecular target: T4, hCB2 Receptor (HEK293T.CNR2) (Homo sapiens, UniProt P34972); assay: cAMP assay, HEK293T.CNR2; type: cell-based; settings: max. tested 10μM
T4 construct: expressed in transfected cells; host or cells: HEK293T

[7] = molecular target: T5, mouse Gpr55 (Mus musculus, UniProt Q3UJF0); assay: Nuclear CREB expression, DBT cells transfected with mouse Gpr55; type: cell-based; settings: 10 μM
T5 construct: expressed in transfected cells; host or cells: DBT cells

[8] = molecular target: T6, V1a (Homo sapiens, UniProt P37288); assay: Receptor binding profile of VSN16R; settings: 10µM VSN16R
T6 construct: purchased Cerep; Chantest; DiscoveRx; Multispan; MDS Pharma Services

[9] = system: dogs; assay: 28 day toxicology in dogs (50, 100, 200mg/kg p.o.); type: in vivo, dog
Description: Twenty‐eight day toxicology in rats and dogs for Investigational New Drug filing was performed by Charles Rivers (UK). Reproductive toxicology in rabbits was performed by Charles Rivers (Canada). Pharmacokinetic and/or toxicological doses ranged from 5 to 1000 mg·kg^−1 p.o. in Sprague Dawley male and female rats (n = 6‐26 per group), 50–200 mg·kg^−1 p.o. in male and female Beagle dogs (n = 6 per group) and 100–750 mg·kg^−1 p.o. in female New Zealand white rabbits (n = 9 per group). Results are expressed as mean ± SD.
Tissue Analysed Result of Tissue Analysis in Rats Result of Tissue Analysis in Dogs Artery, Aorta Negative Negative
Bone Marrow femur Negative Negative
Bone Marrow sternum Negative Negative
Bone, Sternum Negative Negative
Epididymus Negative Negative
Adrenal Gland Negative Negative
Mammary Grand Negative Negative
Parathyroid Gland Negative Negative
Pituitary Gland Negative Negative
Prostate Gland Negative Negative
Salivary Gland Negative Negative
Seminal Vesicle Gland Negative Negative
Gut associated lymphoid Negative Negative
Large Intestine caecum Negative Negative
Large Intestine colon Negative Negative
Large Intestine rectum Negative Negative
Mandibular Lymph Node Negative Negative
Mesenteric Lymph Node Negative Negative
Skeletal Muscle Negative Negative
Nasal Cavity Negative Negative
Sciatic Nerve Negative Negative
Oesophagus Negative Negative
Pancreas Negative Negative […]

[10] = molecular target: T7, EDG1 (Homo sapiens, UniProt P21453); assay: Receptor binding profile of VSN16R; settings: 10µM VSN16R
T7 construct: purchased Cerep; Chantest; DiscoveRx; Multispan; MDS Pharma Services

[11] = molecular target: GPR119 (Homo sapiens, UniProt Q8TDV5); assay: Receptor binding profile of VSN16R; design: purchased Cerep; Chantest; DiscoveRx; Multispan; MDS Pharma Services; settings: 10µM VSN16R
[12] = system: spastic ABH mice with EAE; assay: Spasticity: resistance to hindlimb flexion against a strain gauge
[13] = molecular target: T8, μ (Homo sapiens, UniProt P35372); assay: Receptor binding profile of VSN16R; settings: 10µM VSN16R
T8 construct: purchased Cerep; Chantest; DiscoveRx; Multispan; MDS Pharma Services

[14] = molecular target: T9, 5-HT1A (Homo sapiens, UniProt P08908); assay: Receptor binding profile of VSN16R; settings: 10µM VSN16R
T9 construct: purchased Cerep; Chantest; DiscoveRx; Multispan; MDS Pharma Services

[15] = molecular target: T10, TrK B (Homo sapiens, UniProt Q16620); assay: Receptor binding profile of VSN16R; settings: 10µM VSN16R
T10 construct: purchased Cerep; Chantest; DiscoveRx; Multispan; MDS Pharma Services
T10 sequence (Q16620 32-822): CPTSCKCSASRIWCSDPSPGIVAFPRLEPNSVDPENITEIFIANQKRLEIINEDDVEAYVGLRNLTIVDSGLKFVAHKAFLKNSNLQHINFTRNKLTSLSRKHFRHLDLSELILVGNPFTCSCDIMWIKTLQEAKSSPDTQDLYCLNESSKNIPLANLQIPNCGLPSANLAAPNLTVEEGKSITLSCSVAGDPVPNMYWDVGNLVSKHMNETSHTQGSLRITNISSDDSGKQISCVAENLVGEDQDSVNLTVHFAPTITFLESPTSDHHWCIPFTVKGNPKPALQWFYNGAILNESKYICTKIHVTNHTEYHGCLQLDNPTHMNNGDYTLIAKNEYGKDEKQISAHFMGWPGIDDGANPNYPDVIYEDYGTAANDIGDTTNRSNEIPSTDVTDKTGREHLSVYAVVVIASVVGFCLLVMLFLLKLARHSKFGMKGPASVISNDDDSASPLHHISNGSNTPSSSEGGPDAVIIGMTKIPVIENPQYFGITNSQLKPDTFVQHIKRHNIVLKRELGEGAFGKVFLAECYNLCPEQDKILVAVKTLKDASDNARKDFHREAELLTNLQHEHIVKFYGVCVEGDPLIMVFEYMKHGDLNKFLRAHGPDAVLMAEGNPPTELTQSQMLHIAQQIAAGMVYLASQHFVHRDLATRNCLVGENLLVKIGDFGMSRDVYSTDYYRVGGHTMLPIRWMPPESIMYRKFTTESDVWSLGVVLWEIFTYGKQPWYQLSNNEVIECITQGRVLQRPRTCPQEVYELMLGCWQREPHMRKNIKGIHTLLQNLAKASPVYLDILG

CYP450 1A2 (Homo sapiens), sequence (P11511 whole entry): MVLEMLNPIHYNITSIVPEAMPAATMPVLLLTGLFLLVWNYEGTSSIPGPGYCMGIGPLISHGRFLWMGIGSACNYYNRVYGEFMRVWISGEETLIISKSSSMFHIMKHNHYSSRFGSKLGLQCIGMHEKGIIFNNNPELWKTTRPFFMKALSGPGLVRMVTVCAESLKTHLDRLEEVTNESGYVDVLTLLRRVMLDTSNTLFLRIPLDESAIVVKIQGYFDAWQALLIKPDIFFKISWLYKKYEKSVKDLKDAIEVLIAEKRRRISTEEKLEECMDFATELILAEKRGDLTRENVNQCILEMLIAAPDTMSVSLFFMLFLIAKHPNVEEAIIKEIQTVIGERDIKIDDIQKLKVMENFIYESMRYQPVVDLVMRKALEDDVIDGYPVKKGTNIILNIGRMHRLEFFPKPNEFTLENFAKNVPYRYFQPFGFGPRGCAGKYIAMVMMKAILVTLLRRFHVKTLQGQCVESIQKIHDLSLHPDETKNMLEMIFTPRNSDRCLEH
T6 sequence (P37288 whole entry): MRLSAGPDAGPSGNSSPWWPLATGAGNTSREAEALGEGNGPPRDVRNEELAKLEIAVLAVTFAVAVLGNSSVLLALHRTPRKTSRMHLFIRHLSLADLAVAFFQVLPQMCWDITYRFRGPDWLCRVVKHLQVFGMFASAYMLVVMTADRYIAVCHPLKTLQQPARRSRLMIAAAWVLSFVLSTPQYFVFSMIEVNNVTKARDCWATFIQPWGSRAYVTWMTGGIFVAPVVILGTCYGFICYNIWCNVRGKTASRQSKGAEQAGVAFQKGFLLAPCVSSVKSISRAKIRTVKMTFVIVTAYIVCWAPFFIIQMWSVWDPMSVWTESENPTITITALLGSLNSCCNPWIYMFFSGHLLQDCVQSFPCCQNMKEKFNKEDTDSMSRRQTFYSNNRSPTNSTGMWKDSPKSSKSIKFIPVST
T9 sequence (P08908 whole entry): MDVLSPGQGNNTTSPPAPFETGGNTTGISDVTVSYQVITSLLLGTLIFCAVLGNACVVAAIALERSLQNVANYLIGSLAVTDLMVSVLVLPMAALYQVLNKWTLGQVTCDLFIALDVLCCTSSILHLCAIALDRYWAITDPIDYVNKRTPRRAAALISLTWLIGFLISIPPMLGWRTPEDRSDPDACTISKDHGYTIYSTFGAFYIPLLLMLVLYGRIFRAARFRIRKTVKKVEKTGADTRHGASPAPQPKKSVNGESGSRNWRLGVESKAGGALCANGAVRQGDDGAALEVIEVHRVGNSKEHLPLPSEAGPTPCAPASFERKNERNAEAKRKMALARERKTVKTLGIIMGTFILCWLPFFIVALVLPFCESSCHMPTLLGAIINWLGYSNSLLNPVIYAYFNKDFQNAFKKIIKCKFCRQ
T4 sequence (P34972 whole entry): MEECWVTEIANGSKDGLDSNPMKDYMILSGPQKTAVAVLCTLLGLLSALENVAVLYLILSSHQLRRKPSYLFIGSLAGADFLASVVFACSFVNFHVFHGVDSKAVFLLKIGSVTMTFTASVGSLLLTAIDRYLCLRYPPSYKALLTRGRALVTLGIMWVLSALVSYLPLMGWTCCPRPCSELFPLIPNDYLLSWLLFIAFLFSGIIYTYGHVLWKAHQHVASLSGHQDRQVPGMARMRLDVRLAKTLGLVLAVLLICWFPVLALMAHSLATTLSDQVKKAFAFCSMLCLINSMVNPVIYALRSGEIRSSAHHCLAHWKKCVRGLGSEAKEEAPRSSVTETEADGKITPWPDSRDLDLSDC
T3 sequence (P35367 whole entry): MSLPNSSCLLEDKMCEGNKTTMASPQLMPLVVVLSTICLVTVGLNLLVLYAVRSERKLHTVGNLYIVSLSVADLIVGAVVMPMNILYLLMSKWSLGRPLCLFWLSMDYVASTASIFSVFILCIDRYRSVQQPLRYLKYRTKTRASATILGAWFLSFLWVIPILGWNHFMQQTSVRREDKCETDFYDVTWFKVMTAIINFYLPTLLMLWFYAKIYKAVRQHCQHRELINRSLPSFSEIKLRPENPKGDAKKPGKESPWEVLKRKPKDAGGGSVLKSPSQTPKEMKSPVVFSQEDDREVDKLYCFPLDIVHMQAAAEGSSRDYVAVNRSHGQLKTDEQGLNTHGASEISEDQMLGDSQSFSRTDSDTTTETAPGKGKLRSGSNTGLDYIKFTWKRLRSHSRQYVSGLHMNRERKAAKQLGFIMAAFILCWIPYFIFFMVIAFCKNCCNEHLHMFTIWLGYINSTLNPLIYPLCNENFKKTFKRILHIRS
T7 sequence (P21453 whole entry): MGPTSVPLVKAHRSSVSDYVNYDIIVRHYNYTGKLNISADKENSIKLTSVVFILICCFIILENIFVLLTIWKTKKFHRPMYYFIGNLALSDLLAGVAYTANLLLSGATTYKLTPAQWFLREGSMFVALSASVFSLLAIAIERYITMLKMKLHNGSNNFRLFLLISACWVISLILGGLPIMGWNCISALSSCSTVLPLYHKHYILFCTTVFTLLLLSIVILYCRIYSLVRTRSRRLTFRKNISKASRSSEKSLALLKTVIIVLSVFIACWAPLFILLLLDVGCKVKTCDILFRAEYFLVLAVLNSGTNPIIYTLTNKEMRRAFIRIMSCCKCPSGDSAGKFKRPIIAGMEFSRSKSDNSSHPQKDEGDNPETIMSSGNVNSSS
T8 sequence (P35372 whole entry): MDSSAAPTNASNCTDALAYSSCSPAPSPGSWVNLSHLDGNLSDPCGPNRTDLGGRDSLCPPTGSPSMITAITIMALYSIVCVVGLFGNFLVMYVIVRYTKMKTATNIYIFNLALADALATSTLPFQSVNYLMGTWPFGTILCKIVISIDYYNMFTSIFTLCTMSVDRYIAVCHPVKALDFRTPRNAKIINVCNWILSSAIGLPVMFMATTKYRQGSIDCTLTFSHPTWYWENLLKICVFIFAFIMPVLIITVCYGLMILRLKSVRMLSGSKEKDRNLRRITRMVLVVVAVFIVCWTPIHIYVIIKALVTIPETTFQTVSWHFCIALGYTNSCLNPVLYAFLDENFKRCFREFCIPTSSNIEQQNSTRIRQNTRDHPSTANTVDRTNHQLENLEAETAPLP
T5 sequence (Q3UJF0 whole entry): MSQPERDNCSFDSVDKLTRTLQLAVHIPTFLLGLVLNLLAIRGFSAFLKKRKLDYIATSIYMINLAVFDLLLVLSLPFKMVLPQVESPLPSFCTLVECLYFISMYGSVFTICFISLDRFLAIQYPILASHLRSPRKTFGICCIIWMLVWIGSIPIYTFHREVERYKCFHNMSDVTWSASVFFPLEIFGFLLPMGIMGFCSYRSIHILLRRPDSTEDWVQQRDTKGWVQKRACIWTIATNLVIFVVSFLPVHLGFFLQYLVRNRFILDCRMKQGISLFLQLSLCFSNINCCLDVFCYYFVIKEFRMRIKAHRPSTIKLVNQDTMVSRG
GPR119, sequence (Q8TDV5 whole entry): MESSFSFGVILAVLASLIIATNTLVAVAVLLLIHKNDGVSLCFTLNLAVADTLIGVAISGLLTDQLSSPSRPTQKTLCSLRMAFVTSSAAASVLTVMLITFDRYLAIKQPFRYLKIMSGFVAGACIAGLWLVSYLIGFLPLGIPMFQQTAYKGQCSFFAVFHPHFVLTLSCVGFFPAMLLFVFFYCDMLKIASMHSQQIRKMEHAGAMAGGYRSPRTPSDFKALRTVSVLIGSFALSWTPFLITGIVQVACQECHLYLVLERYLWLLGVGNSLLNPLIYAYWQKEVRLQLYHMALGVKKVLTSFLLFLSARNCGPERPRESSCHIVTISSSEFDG
T2 sequence (P21452 whole entry): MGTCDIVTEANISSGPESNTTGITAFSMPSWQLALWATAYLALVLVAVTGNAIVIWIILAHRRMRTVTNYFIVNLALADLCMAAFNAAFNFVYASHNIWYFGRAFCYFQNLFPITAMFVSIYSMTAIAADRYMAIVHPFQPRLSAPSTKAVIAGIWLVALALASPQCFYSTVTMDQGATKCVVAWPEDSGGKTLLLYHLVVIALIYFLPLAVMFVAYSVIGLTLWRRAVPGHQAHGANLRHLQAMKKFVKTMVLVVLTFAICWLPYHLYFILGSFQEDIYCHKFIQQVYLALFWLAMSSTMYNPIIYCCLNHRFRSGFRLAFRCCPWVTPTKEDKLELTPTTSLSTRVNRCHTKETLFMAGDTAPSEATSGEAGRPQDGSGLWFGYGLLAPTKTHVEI

Structure (SMILES): C[C@H](CO)NC(=O)c1cccc(/C=C\CCCC(=O)N(C)C)c1 [VSN16R]
- Activity [1]: Negligible Activity
- Activity [2]: Negligible Activity
- Activity [3]: Negligible Activity
- IC50 [4]: > 10 µM
- Activity [5]: Negligible Activity
- Activity of VSN16R (Max. Tested) [6]: No Activity
- Activity on DBT cells transfected with mouse Gpr55 [7]: Lack of activity
- Activity [8]: Negligible Activity
- Result of Tissue Analysis in Dogs ([9]; dog, in vivo): Negative
- NOEL ([9]; p.o., dogs): 100 mg/kg
- Activity [10]: Negligible Activity
- Activity [11]: Negligible Activity
- Inhibition of spasticity ([12]; 0.5 mg·kg^−1 p.o.): failed to produce rapid muscular relaxation and inhibition of spasticity
- Inhibition of spasticity ([12]; 1 mg·kg^−1 p.o.): significant therapeutic activity was evident within 10 min
- Inhibition of spasticity ([12]; 5 mg·kg^−1 i.v.): slightly more active than VSN16S
- Inhibition of spasticity ([12]; 5 mg·kg^−1 p.o.): significant therapeutic activity was evident within 10 min
- Mean group score, resistance to flexion (±SD), one mean per animal ([12]; 5 mg·kg^−1 p.o., 30 min): 0.224 ± 0.067 N
- Mean group score, resistance to flexion (±SD), one mean per animal ([12]; 5 mg·kg^−1 p.o., 60 min): 0.214 ± 0.071 N
- Therapeutic effect after repeated daily administration ([12]; 40 mg·kg^−1 p.o. for 7 days): therapeutic effect was sustained
- Drop of resistance to flexion from baseline ([12]; 40 mg·kg^−1 p.o., visibly spastic animals): 17.8 ± 5.3%
- Resistance to flexion force ([12]; 2 weeks after cessation of weekly treatment, mean ± SEM): 0.157 ± 0.045 N
- Duration of inhibition of spasticity ([12]; single dose of 40 mg·kg^−1 p.o.): over 6 h
- Activity [13]: Negligible Activity
- Activity [14]: Negligible Activity
- Activity [15]: Negligible Activity
